In brackets after ≈: the same amount, converted by molar mass.

The test concerns Staphylococcus aureus. The test is described as follows: Antibacterial activity against methicillin-resistant Staphylococcus aureus USA300 LAC assessed as reduction in bacterial growth incubated for 21 hrs by broth dilution method. It counts as functional.
On to `C#CC[C@H]1NC(=O)[C@@H]2CSC(N2)[C@H](C(C)C)NC(=O)[C@@H](Cc2c[nH]c3ccccc23)NC(=O)[C@H](C(C)C)NC(=O)[C@@H](CC(C)C)NC(=O)[C@H](Cc2c[nH]c3ccccc23)NC1=O`, for which the MIC was 3.9 µM (≈ 3.38 µg/mL).

As for `CC(C)C[C@H]1NC(=O)[C@H](Cc2ccc(Cl)cc2)NC(=O)[C@@H](C(C)C)NC(=O)[C@@H]2CSC(N2)[C@H](C(C)C)NC(=O)[C@@H](C(C)C)NC(=O)[C@H](C(C)C)NC1=O`, the MIC was found to be 129 µM (≈ 100 µg/mL).

Regarding `CC(C)C[C@H]1NC(=O)[C@H](Cc2ccc(C(=O)c3ccccc3)cc2)NC(=O)[C@@H](C(C)C)NC(=O)[C@@H]2CSC(N2)[C@H](C(C)C)NC(=O)[C@@H](C(C)C)NC(=O)[C@H](C(C)C)NC1=O`, the MIC worked out at 59 µM (≈ 50 µg/mL).

Regarding `CC(C)C[C@H]1NC(=O)[C@H](Cc2csc3ccccc23)NC(=O)[C@@H](C(C)C)NC(=O)[C@@H]2CSC(N2)[C@H](C(C)C)NC(=O)[C@@H](C(C)C)NC(=O)[C@H](C(C)C)NC1=O`, the minimum inhibitory concentration (MIC) was determined as 15.6 µM (≈ 12.5 µg/mL).

Regarding `CC(C)C[C@@H]1NC(=O)[C@@H](C(C)C)NC(=O)[C@H](C(C)C)NC(=O)[C@@H](C(C)C)NC(=O)[C@@H]2CSC(N2)[C@H](C(C)C)NC(=O)[C@@H](Cc2c[nH]c3ccccc23)NC1=O`, the minimum inhibitory concentration (MIC) worked out at 8 µM (≈ 6.26 µg/mL).

With `CC(C)CC[C@H]1NC(=O)[C@@H]2CSC(N2)[C@H](C(C)C)NC(=O)[C@@H](C(C)C)NC(=O)[C@H](C(C)C)NC(=O)[C@@H](CC(C)C)NC(=O)[C@H](Cc2c[nH]c3ccccc23)NC1=O`, the minimal inhibitory concentration (MIC) was 61.7 µM (≈ 50 µg/mL).

On to `CC(C)C[C@H]1NC(=O)[C@H](Cc2c(F)c(F)c(F)c(F)c2F)NC(=O)[C@@H](C(C)C)NC(=O)[C@@H]2CSC(N2)[C@H](C(C)C)NC(=O)[C@@H](C(C)C)NC(=O)[C@H](C(C)C)NC1=O`, for which the MIC is 30 µM (≈ 25 µg/mL).

Regarding `CC[C@@H](C)[C@H]1NC(=O)[C@@H]2CSC(N2)[C@H](C(C)C)NC(=O)[C@@H](C(C)C)NC(=O)[C@H](C(C)C)NC(=O)[C@@H](CC(C)C)NC(=O)[C@H](Cc2c[nH]c3ccccc23)NC1=O`, the MIC stood at 31.4 µM (≈ 25 µg/mL).

Turning to `CC(C)C[C@H]1NC(=O)[C@@H]2Cc3ccccc3CN2C(=O)[C@@H](C(C)C)NC(=O)[C@@H]2CSC(N2)[C@H](C(C)C)NC(=O)[C@@H](C(C)C)NC(=O)[C@H](C(C)C)NC1=O`, the MIC worked out at 132 µM (≈ 100 µg/mL).

For the compound `CC(C)C[C@H]1NC(=O)[C@H](Cc2c[nH]cn2)NC(=O)[C@@H](C(C)C)NC(=O)[C@@H]2CSC(N2)[C@H](C(C)C)NC(=O)[C@@H](C(C)C)NC(=O)[C@H](C(C)C)NC1=O`, the minimum inhibitory concentration (MIC) worked out at 136 µM (≈ 100 µg/mL).

Turning to `CC(C)C[C@H]1NC(=O)[C@H](Cc2ccc(-c3ccccc3)cc2)NC(=O)[C@@H](C(C)C)NC(=O)[C@@H]2CSC(N2)[C@H](C(C)C)NC(=O)[C@@H](C(C)C)NC(=O)[C@H](C(C)C)NC1=O`, the MIC came to 30.5 µM (≈ 25 µg/mL).

`CC(C)C[C@H]1NC(=O)[C@H](Cc2ccc(O)c(O)c2)NC(=O)[C@@H](C(C)C)NC(=O)[C@@H]2CSC(N2)[C@H](C(C)C)NC(=O)[C@@H](C(C)C)NC(=O)[C@H](C(C)C)NC1=O`: the MIC is 130 µM (≈ 101 µg/mL).

With `CC(C)C[C@H]1NC(=O)[C@H](Cc2nc3ccccc3s2)NC(=O)[C@@H](C(C)C)NC(=O)[C@@H]2CSC(N2)[C@H](C(C)C)NC(=O)[C@@H](C(C)C)NC(=O)[C@H](C(C)C)NC1=O`, the MIC stood at 31.3 µM (≈ 25.1 µg/mL).

As for `CC(C)C[C@H]1NC(=O)[C@H](Cc2ccc(O)cc2)NC(=O)[C@@H](C(C)C)NC(=O)[C@@H]2CSC(N2)[C@H](C(C)C)NC(=O)[C@@H](C(C)C)NC(=O)[C@H](C(C)C)NC1=O`, the minimal inhibitory concentration (MIC) stood at 132 µM (≈ 100 µg/mL).

Turning to `CC(C)C[C@H]1NC(=O)[C@H](Cc2c[nH]c3ccccc23)NC(=O)[C@@H](Cc2c[nH]c3ccccc23)NC(=O)[C@@H]2CSC(N2)[C@H](C(C)C)NC(=O)[C@@H](C(C)C)NC(=O)[C@H](C(C)C)NC1=O`, the MIC was 28.8 µM (≈ 25.1 µg/mL).

With `CC(C)C[C@H]1NC(=O)[C@@H]2CSC(N2)[C@H](C(C)C)NC(=O)[C@@H](C(C)C)NC(=O)[C@H](C(C)C)NC(=O)[C@@H](CC(C)C)NC(=O)[C@H](Cc2c[nH]c3ccccc23)NC1=O`, the minimal inhibitory concentration (MIC) came to 15.7 µM (≈ 12.5 µg/mL).

Regarding `CC(C)C[C@H]1NC(=O)[C@H](Cc2c[nH]c3ccccc23)NC(=O)[C@@H](C(C)C)NC(=O)[C@@H]2CSC(N2)[C@H](C(C)C)NC(=O)[C@@H](Cc2c[nH]c3ccccc23)NC(=O)[C@H](C(C)C)NC1=O`, the MIC stood at 1.8 µM (≈ 1.57 µg/mL).

For `C#CC[C@@H]1NC(=O)[C@@H](C(C)C)NC(=O)[C@@H]2CSC(N2)[C@H](C(C)C)NC(=O)[C@@H](C(C)C)NC(=O)[C@H](C(C)C)NC(=O)[C@@H](CC(C)C)NC1=O`, the minimum inhibitory concentration (MIC) was determined as 72.4 µM (≈ 50.1 µg/mL).

For the compound `CCC[C@H]1NC(=O)[C@@H]2CSC(N2)[C@H](C(C)C)NC(=O)[C@@H](C(C)C)NC(=O)[C@H](C(C)C)NC(=O)[C@@H](CC(C)C)NC(=O)[C@H](Cc2c[nH]c3ccccc23)NC1=O`, the MIC was found to be 16 µM (≈ 12.5 µg/mL).

For the compound `CSCC[C@H]1NC(=O)[C@@H]2CSC(N2)[C@H](C(C)C)NC(=O)[C@@H](Cc2c[nH]c3ccccc23)NC(=O)[C@H](C(C)C)NC(=O)[C@@H](CC(C)C)NC(=O)[C@H](Cc2c[nH]c3ccccc23)NC1=O`, the MIC worked out at 111 µM (≈ 100 µg/mL).

Consider `CC(C)C[C@H]1NC(=O)[C@H](Cc2ccccc2)NC(=O)[C@@H](C(C)C)NC(=O)[C@@H]2CSC(N2)[C@H](C(C)C)NC(=O)[C@@H](C(C)C)NC(=O)[C@H](C(C)C)NC1=O`, for which the MIC stood at 16.8 µM (≈ 12.5 µg/mL).

In the case of `CC(C)C[C@H]1NC(=O)[C@@H]2CSC(N2)[C@H](C(C)C)NC(=O)[C@@H](C(C)C)NC(=O)[C@H](C(C)C)NC(=O)[C@@H](C(C)C)NC(=O)[C@H](Cc2c[nH]c3ccccc23)NC1=O`, the MIC worked out at 128 µM (≈ 100 µg/mL).

Regarding `CC(C)C[C@H]1NC(=O)[C@H](Cc2c[nH]c3ccccc23)NC(=O)[C@@H](C(C)(C)C)NC(=O)[C@@H]2CSC(N2)[C@H](C(C)C)NC(=O)[C@@H](C(C)C)NC(=O)[C@H](C(C)C)NC1=O`, the MIC is 31.4 µM (≈ 25 µg/mL).

As to `C#CC[C@H]1NC(=O)[C@H](Cc2c[nH]c3ccccc23)NC(=O)[C@@H](C(C)C)NC(=O)[C@@H]2CSC(N2)[C@H](C(C)C)NC(=O)[C@@H](Cc2c[nH]c3ccccc23)NC(=O)[C@H](C(C)C)NC1=O`, the MIC is 58.8 µM (≈ 50.1 µg/mL).

With `CC(C)[C@@H]1NC(=O)[C@@H](Cc2c[nH]c3ccccc23)NC(=O)[C@H](C(C)C)NC(=O)[C@@H](Cc2c[nH]c3ccccc23)NC(=O)[C@H](Cc2c[nH]c3ccccc23)NC(=O)[C@@H](C(C)C)NC(=O)[C@@H]2CSC1N2`, the MIC was 106 µM (≈ 100 µg/mL).

Regarding `CC(C)C[C@H]1NC(=O)[C@H](Cc2c[nH]c3ccccc23)NC(=O)[C@@H](Cc2ccccc2)NC(=O)[C@@H]2CSC(N2)[C@H](C(C)C)NC(=O)[C@@H](C(C)C)NC(=O)[C@H](C(C)C)NC1=O`, the MIC is 120 µM (≈ 100 µg/mL).

Consider `CC(C)C[C@H]1NC(=O)[C@H](Cc2ccco2)NC(=O)[C@@H](C(C)C)NC(=O)[C@@H]2CSC(N2)[C@H](C(C)C)NC(=O)[C@@H](C(C)C)NC(=O)[C@H](C(C)C)NC1=O`, for which the MIC came to 136 µM (≈ 100 µg/mL).

`CCC[C@H]1NC(=O)[C@H](Cc2c[nH]c3ccccc23)NC(=O)[C@@H](C(C)C)NC(=O)[C@@H]2CSC(N2)[C@H](C(C)C)NC(=O)[C@@H](Cc2c[nH]c3ccccc23)NC(=O)[C@H](C(C)C)NC1=O`: the MIC worked out at 14.6 µM (≈ 12.5 µg/mL).

In the case of `CSCC[C@H]1NC(=O)[C@H](Cc2c[nH]c3ccccc23)NC(=O)[C@@H](C(C)C)NC(=O)[C@@H]2CSC(N2)[C@H](C(C)C)NC(=O)[C@@H](Cc2c[nH]c3ccccc23)NC(=O)[C@H](C(C)C)NC1=O`, the MIC came out at 113 µM (≈ 100 µg/mL).

Take `CC(C)C[C@H]1NC(=O)[C@H](Cc2c3ccccc3cc3ccccc23)NC(=O)[C@@H](C(C)C)NC(=O)[C@@H]2CSC(N2)[C@H](C(C)C)NC(=O)[C@@H](C(C)C)NC(=O)[C@H](C(C)C)NC1=O`: the MIC turned out to be 7.4 µM (≈ 6.25 µg/mL).

`CC[C@H](C)[C@H]1NC(=O)[C@@H]2CSC(N2)[C@H](C(C)C)NC(=O)[C@@H](Cc2c[nH]c3ccccc23)NC(=O)[C@H](C(C)C)NC(=O)[C@@H](CC(C)C)NC(=O)[C@H](Cc2c3ccccc3cc3ccccc23)NC1=O`: the MIC was 106 µM (≈ 100 µg/mL).

With `C=CC[C@H]1NC(=O)[C@@H]2CSC(N2)[C@H](C(C)C)NC(=O)[C@@H](Cc2c[nH]c3ccccc23)NC(=O)[C@H](C(C)C)NC(=O)[C@@H](CC(C)C)NC(=O)[C@H](Cc2c[nH]c3ccccc23)NC1=O`, the MIC came out at 14.4 µM (≈ 12.5 µg/mL).

Turning to `CC(C)C[C@H]1NC(=O)[C@H](c2ccccc2)NC(=O)[C@@H](C(C)C)NC(=O)[C@@H]2CSC(N2)[C@H](C(C)C)NC(=O)[C@@H](C(C)C)NC(=O)[C@H](C(C)C)NC1=O`, the MIC is 137 µM (≈ 100 µg/mL).

Take `CC(C)C[C@H]1NC(=O)[C@@H]2CSC(N2)[C@H](C(C)C)NC(=O)[C@@H](Cc2c[nH]c3ccccc23)NC(=O)[C@H](C(C)C)NC(=O)[C@@H](CC(C)C)NC(=O)[C@H](Cc2c[nH]c3ccccc23)NC1=O`: the MIC was 113 µM (≈ 99.9 µg/mL).

For `CC(C)C[C@H]1NC(=O)[C@H](Cc2ccncc2)NC(=O)[C@@H](C(C)C)NC(=O)[C@@H]2CSC(N2)[C@H](C(C)C)NC(=O)[C@@H](C(C)C)NC(=O)[C@H](C(C)C)NC1=O`, the MIC was 134 µM (≈ 100 µg/mL).

In the case of `CC(C)C[C@H]1NC(=O)[C@H](C(c2ccccc2)c2ccccc2)NC(=O)[C@@H](C(C)C)NC(=O)[C@@H]2CSC(N2)[C@H](C(C)C)NC(=O)[C@@H](C(C)C)NC(=O)[C@H](C(C)C)NC1=O`, the MIC was 61.1 µM (≈ 50.1 µg/mL).

For the compound `CC(C)[C@@H]1NC(=O)[C@@H](Cc2c[nH]c3ccccc23)NC(=O)[C@H](C(C)C)NC(=O)[C@@H](C(C)(C)C)NC(=O)[C@H](Cc2c[nH]c3ccccc23)NC(=O)[C@@H](C(C)C)NC(=O)[C@@H]2CSC1N2`, the minimum inhibitory concentration (MIC) is 28.8 µM (≈ 25.1 µg/mL).

For the compound `CC(C)[C@@H]1NC(=O)[C@@H](Cc2c[nH]c3ccccc23)NC(=O)[C@H](C(C)C)NC(=O)[C@@H](Cc2ccccc2)NC(=O)[C@H](Cc2c[nH]c3ccccc23)NC(=O)[C@@H](C(C)C)NC(=O)[C@@H]2CSC1N2`, the MIC came out at 111 µM (≈ 100 µg/mL).

Regarding `CC[C@H](C)[C@H]1NC(=O)[C@H](Cc2c[nH]c3ccccc23)NC(=O)[C@@H](C(C)C)NC(=O)[C@@H]2CSC(N2)[C@H](C(C)C)NC(=O)[C@@H](C(C)C)NC(=O)[C@H](C(C)C)NC1=O`, the MIC came out at 31.9 µM (≈ 25 µg/mL).

With `CC[C@H](C)[C@H]1NC(=O)[C@@H]2CSC(N2)[C@H](C(C)C)NC(=O)[C@@H](C(C)C)NC(=O)[C@H](C(C)C)NC(=O)[C@@H](CC(C)C)NC(=O)[C@H](Cc2c[nH]c3ccccc23)NC1=O`, the MIC worked out at 7.9 µM (≈ 6.3 µg/mL).

`CC(C)C[C@H]1NC(=O)[C@H](Cc2cn(C)c3ccccc23)NC(=O)[C@@H](C(C)C)NC(=O)[C@@H]2CSC(N2)[C@H](C(C)C)NC(=O)[C@@H](C(C)C)NC(=O)[C@H](C(C)C)NC1=O`: the minimum inhibitory concentration (MIC) came to 15.7 µM (≈ 12.5 µg/mL).

(Values after ChEMBL document CHEMBL4834415, “Distinct Lugdunins from a New Efficient Synthesis and Broad Exploitation of Its MRSA-Antimicrobial Structure” (2021).)
